According to US20250027085A1, “COMPOSITIONS AND METHODS FOR TREATING ALZHEIMER'S DISEASE UTILIZING A TRANSCRIPTIONAL MASTER REGULATOR OF THE RETROMER COMPLEX” (THE TRUSTEES OF COLUMBIA UNIVERSITY IN THE CITY OF NEW YORK, priority 2022, published 2025):

Test system: CHOP
Test: CHOP quantitative immunofluorescence in soma after axonal Aβ1-42/Aβ42
Assay type: cell-based, rat
Settings: axonal treatment; Aβ oligomers 36 hours, nelfinavir in the last 24 hours
Protocol: Hippocampi were dissected from embryonic day (E) 16-18 rat embryos obtained from pregnant Sprague-Dawley dams (Envigo). All animal procedures were approved by the Institutional Animal Care and Use Committee at Columbia University. Cell dissociation was performed using TripLE Express. Neurons (50,000-60,000 per microfluidic chamber) were plated on 0.1 mg ml^-1 poly-D-lysine (Millipore Sigma) and 2 μg ml^-1 laminin (Bio-Techne) coated substrates and grown in Neurobasal supplemented with 10% fetal bovine serum, 2 mM L-glutamine, 1 mM sodium pyruvate, and antibiotics (50 U ml^-1 penicillin-streptomycin). Tripartite microfluidic chambers were produced with Dow Corning Sylgard 184 Silicone Encapsulant Clear Kit (10:1 mix ratio; Ellsworth Adhesives) cured at […] for at least 4 hours following published protocols (Park et al. 2006; Desai et al. 2009). Chamber design incorporated two sets of 200-μm-long microgroove barriers to exclude crossing of cell bodies and dendrites (Taylor et al. 2005; […] et al. 2009). After 24 hours, medium was changed to Neurobasal containing 1×B27 and 2 mM L-glutamine. Subsequent medium changes (half volumes) were performed at DIV4 and thereafter every 3-5 days. […] Mean pixel intensity values were computed after background fluorescence subtraction.

## Cc1c(O)cccc1C(=O)N[C@@H](CSc1ccccc1)[C@H](O)CN1C[C@H]2CCCC[C@H]2C[C@H]1C(=O)NC(C)(C)C [nelfinavir]
  downstream induction of CHOP expression in the soma: abolished
